ChEMBL document CHEMBL4130596, “Adding a Hydrogen Bond May Not Help: Naphthyridinone vs Quinoline Inhibitors of Macrophage Migration Inhibitory Factor” (ACS Med Chem Lett, 2017)
≈ marks a conversion by molar mass, not a printed value.

Experiment: Aqueous solubility of the compound in Britton-Robinson buffer after 48 hrs at pH 6.5 by UV-vis spectrophotometry based shake flask method
Format: physicochemical

solubility thermodynamic at 48 h: 288 µg/mL (≈ 755 µM)
Compound: O=C(O)Cn1ccc2ccc(-c3cn(-c4ccc(O)c(F)c4)nn3)nc2c1=O
